In BindingDB's records for doi:10.1021/jm049771u (Bar-Ilan University, 2004):

Biological target: P2Y purinoceptor 1 (Rattus norvegicus, UniProt P49651)
Assay: Concentration required for calcium mobilization at rat purinergic 2Y1 receptor expressed in HEK 293 cells

Chain of P2Y purinoceptor 1 (P49651 whole entry): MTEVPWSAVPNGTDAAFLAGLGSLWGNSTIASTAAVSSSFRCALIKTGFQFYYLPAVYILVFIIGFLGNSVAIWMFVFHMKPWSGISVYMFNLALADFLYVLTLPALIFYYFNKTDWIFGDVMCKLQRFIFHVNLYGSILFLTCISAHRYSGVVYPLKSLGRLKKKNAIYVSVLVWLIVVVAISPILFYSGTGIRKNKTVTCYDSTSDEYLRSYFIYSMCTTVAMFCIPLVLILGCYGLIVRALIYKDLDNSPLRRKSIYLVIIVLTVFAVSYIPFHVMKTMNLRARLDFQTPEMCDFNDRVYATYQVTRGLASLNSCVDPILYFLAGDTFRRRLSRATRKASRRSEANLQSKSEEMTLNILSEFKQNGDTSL

EC50: 4.5 nM
Compound: B[PH](O)(OC[C@H]1OC(n2cnc3c(N)nc(Cl)nc32)[C@H](O)[C@@H]1O)OP(=O)(O)OP(=O)(O)O (stereo partly specified)
